In brackets after ≈: the same amount, converted by molar mass. Like-named read-outs stand apart in the source and are kept apart here.
What was measured:
Assay in all cases: In vitro activity, dilution method in liquid medium (MIC)
Type in all cases: cell-based
[1] = tested on: Proteus vulgaris A 232; conditions: read-out: concentrations minimales inhibitrices (C. M. I.)
Protocol: (§1) Etude pharmacologiaue des produits de l'invention. Activité in vitro, méthode des dilutions en milieu liquide.
(§2) On prépare une série de tubes dans lesquels on répartit une même quantité de milieu nutritif stérile. On distribue dans chaque tube des quantités croissantes du produit à étudier, puis chaque tube est ensemencé avec une souche bactérienne. Après incubation de vingt-quatre ou quarante-huit heures à l'étuve à 37°C, l'inhibition de la croissance est appréciée par transillumination ce qui permet de déterminer les concentrations minimales inhibitrices (C. M. I.) exprimées en µg/cm3.

[2] = tested on: Escherichia Coli TEM; conditions: read-out: concentrations minimales inhibitrices (C. M. I.)
Protocol: as §1, §2

[3] = tested on: Proteus mirabilis A 235; conditions: read-out: concentrations minimales inhibitrices (C. M. I.)
Protocol: as §1, §2

[4] = tested on: Escherichia Coli DC0; conditions: read-out: concentrations minimales inhibitrices (C. M. I.)
Protocol: as §1, §2

[5] = tested on: Escherichia Coli DC2; conditions: read-out: concentrations minimales inhibitrices (C. M. I.)
Protocol: as §1, §2

[6] = tested on: Pseudomonas aeruginosa 1771 m; conditions: read-out: concentrations minimales inhibitrices (C. M. I.)
Protocol: as §1, §2

[7] = tested on: Klebsiella pneumonae 52145; conditions: read-out: concentrations minimales inhibitrices (C. M. I.)
Protocol: as §1, §2

[8] = tested on: Serratia marcesceus 2532; conditions: read-out: concentrations minimales inhibitrices (C. M. I.)
Protocol: as §1, §2

[9] = tested on: Enterobacter cloacae 1321 E; conditions: read-out: concentrations minimales inhibitrices (C. M. I.)
Protocol: as §1, §2

[10] = tested on: Providencia DU 48; conditions: read-out: concentrations minimales inhibitrices (C. M. I.)
Protocol: as §1, §2

[11] = tested on: Klebsiella Aeruginosa 1522 E; conditions: read-out: concentrations minimales inhibitrices (C. M. I.)
Protocol: as §1, §2

[12] = tested on: Escherichia Coli 078; conditions: read-out: concentrations minimales inhibitrices (C. M. I.)
Protocol: as §1, §2

[13] = tested on: Salmonella typhimurium MZ 11; conditions: Salmonella enterica, read-out: concentrations minimales inhibitrices (C. M. I.)
Protocol: as §1, §2

[14] = tested on: Escherichia Coli 1894; conditions: read-out: concentrations minimales inhibitrices (C. M. I.)
Protocol: as §1, §2

[15] = tested on: Escherichia Coli 1507 E; conditions: COLI1507E, read-out: concentrations minimales inhibitrices (C. M. I.)
Protocol: as §1, §2

[16] = COLIDC0, 24 H incubation at 37°C
[17] = COLIDC0, 48 H incubation at 37°C
[18] = COLIDC2, 24 H incubation at 37°C
[19] = COLIDC2, 48 H incubation at 37°C
[20] = COLI078, 24 H incubation at 37°C
[21] = COLI078, 48 H incubation at 37°C
[22] = COLI1894, 24 H incubation at 37°C
[23] = COLI1894, 48 H incubation at 37°C

Compound | MIC ([1]; A232, 24 H incubation at 37°C) | MIC ([1]; A232, 48 H incubation at 37°C) | MIC ([2]; 24 h) | MIC ([2]; 48 h) | MIC ([3]; A235, 24 H incubation at 37°C) | MIC ([3]; A235, 48 H incubation at 37°C) | MIC [4, 16] | MIC [4, 17] | MIC [5, 18] | MIC [5, 19] | MIC ([6]; 24 H incubation at 37°C) | MIC ([6]; 48 H incubation at 37°C) | MIC ([7]; 24 H incubation at 37°C) | MIC ([7]; 48 H incubation at 37°C) | MIC ([8]; 24 H incubation at 37°C) | MIC ([8]; 48 H incubation at 37°C) | MIC ([9]; 24 H incubation at 37°C) | MIC ([9]; 48 H incubation at 37°C) | MIC ([10]; DU48, 24 H incubation at 37°C) | MIC ([10]; DU48, 48 H incubation at 37°C) | also measured
C[C@@H]1[C@H](NC(=O)/C(=N\OC(C)(C)C(=O)O)c2csc(N)n2)C(=O)N1c1nn[nH]n1 (racemic) [Prod. ex.7, (3SR, 4RS) 3-//2-(-2-aminothiazol-4-yl) 2-/(1-carboxy 1-méthyléthoxy) imino/ acétyl/ aminol/4-méthyl 1-(tétrazol-5-yl) 2-azétidinone isomère syn] | 0.08 mg/L (≈ 0.189 µM) | 0.08 mg/L (≈ 0.189 µM) | 1.2 mg/L (≈ 2.83 µM) | 1.2 mg/L (≈ 2.83 µM) | 0.15 mg/L (≈ 0.354 µM) | 0.15 mg/L (≈ 0.354 µM) | 0.6 mg/L (≈ 1.42 µM) | 1.2 mg/L (≈ 2.83 µM) | 0.6 mg/L (≈ 1.42 µM) | 0.6 mg/L (≈ 1.42 µM) | 0.6 mg/L (≈ 1.42 µM) | 0.6 mg/L (≈ 1.42 µM) | 2.5 mg/L (≈ 5.9 µM) | 2.5 mg/L (≈ 5.9 µM) | 1.2 mg/L (≈ 2.83 µM) | 1.2 mg/L (≈ 2.83 µM) | 2.5 mg/L (≈ 5.9 µM) | 2.5 mg/L (≈ 5.9 µM) | 0.6 mg/L (≈ 1.42 µM) | 0.6 mg/L (≈ 1.42 µM) | MIC ([11]; 24 H incubation at 37°C): 1.2 mg/L (≈ 2.83 µM); MIC ([11]; 48 H incubation at 37°C): 1.2 mg/L (≈ 2.83 µM); MIC [12, 20]: 0.3 mg/L (≈ 0.709 µM); MIC [12, 21]: 0.6 mg/L (≈ 1.42 µM); MIC ([13]; 24 H incubation at 37°C): 0.6 mg/L (≈ 1.42 µM); MIC ([13]; 48 H incubation at 37°C): 0.6 mg/L (≈ 1.42 µM); MIC [14, 22]: 0.6 mg/L (≈ 1.42 µM); MIC [14, 23]: 0.6 mg/L (≈ 1.42 µM); MIC ([15]; 24 H incubation at 37°C): 1.2 mg/L (≈ 2.83 µM); MIC ([15]; 48 H incubation at 37°C): 1.2 mg/L (≈ 2.83 µM)
CO/N=C(\C(=O)N[C@@H]1C(=O)N(c2nn[nH]n2)[C@H]1C)c1csc(N)n1 (racemic) [Prod. ex. 2, (3SR, 4SR) 3-//2-(2-aminothiazol-4-yl) 2-méthoxyimino acétyl/ amino/ 4-méthyl 1-(1H-tétrazol-5-yl) 2-azétidinone] | 1.2 mg/L (≈ 3.42 µM) | 2.5 mg/L (≈ 7.12 µM) | 10 mg/L (≈ 28.5 µM) | 10 mg/L (≈ 28.5 µM) | 0.6 mg/L (≈ 1.71 µM) | 1.2 mg/L (≈ 3.42 µM) | 2.5 mg/L (≈ 7.12 µM) | 2.5 mg/L (≈ 7.12 µM) | 0.6 mg/L (≈ 1.71 µM) | 1.2 mg/L (≈ 3.42 µM) | ≤ 5 mg/L | ≤ 5 mg/L | 2.5 mg/L (≈ 7.12 µM) | 2.5 mg/L (≈ 7.12 µM) | 20 mg/L (≈ 56.9 µM) | > 40 mg/L | 1.2 mg/L (≈ 3.42 µM) | 1.2 mg/L (≈ 3.42 µM) | 1.2 mg/L (≈ 3.42 µM) | 1.2 mg/L (≈ 3.42 µM) | MIC ([11]; 24 H incubation at 37°C): 0.6 mg/L (≈ 1.71 µM); MIC ([11]; 48 H incubation at 37°C): 0.6 mg/L (≈ 1.71 µM); MIC [12, 20]: 0.6 mg/L (≈ 1.71 µM); MIC [12, 21]: 0.6 mg/L (≈ 1.71 µM); MIC ([13]; 24 H incubation at 37°C): 1.2 mg/L (≈ 3.42 µM); MIC ([13]; 48 H incubation at 37°C): 2.5 mg/L (≈ 7.12 µM); MIC [14, 22]: 0.3 mg/L (≈ 0.854 µM); MIC [14, 23]: 0.3 mg/L (≈ 0.854 µM); MIC ([15]; 24 H incubation at 37°C): 0.6 mg/L (≈ 1.71 µM); MIC ([15]; 48 H incubation at 37°C): 0.6 mg/L (≈ 1.71 µM)

From patent publication EP0114128A1, “3-Amino-2-oxo-azetidine derivatives containing in position 1 a nitrogen heterocyclic radical, process for their preparation, their use as therapeutical agents and intermediates for their preparation” (priority 1983, dated 1984)
